The nature of one data set: Rat PK study. The format is in vivo, Sprague Dawley rats. As to the method: The pharmacokinetics of metopimazine (parent) and metopimazine acid (metabolite) were evaluated in male and female Sprague Dawley rats following a single oral dose of 45 mg/kg metopimazine (free base). Three animals per sex in each dose group were sampled at each timepoint after administration (0.25, 0.5, 1, 2, 4, 8, 12, and 24 hours). The rats (Rattus norvegicus) were obtained from Envigo RMS, Inc. (Indianapolis, IN) and were 2 months old. Animals were weighed prior to each dose administration for the purpose of dose calculation. Whole venous blood samples of approximately 0.5 mL were collected from a peripheral vein of animals for determination of exposure to metopimazine and metopimazine acid. Three animals per sex were sampled at each timepoint. Samples were collected in tubes containing K2EDTA with protease inhibitor cocktail (Sigma, #P8340, at ratio 1:100) and placed on ice until processed for plasma by centrifugation under refrigeration for at least ten minutes at 3000 rpm. After centrifugation, supernatant was removed and stored frozen in a −70° C. freezer until analyzed by LC-MS/MS.
(§1) An MRM LC-MS/MS method was developed for MPZ and metopimazine acid (MPZA) in rat, dog, and human plasma. The method was run in reverse phase in positive ion mode. […] D6-isotopically labeled internal standards were used for each analyte. The following m/z transitions were monitored: metopimazine 446.3→141.1 and metopimazine acid 447.2→142.1.
(§2) Noncompartmental Pharmacokinetics analysis was performed in Phoenix 64 Winnonlin version 8.1.

Another data set deals with other CYP enzymes. The experiment in a line: Incubation with the other recombinant CYP isoforms. It counts as in vitro ADME, human. The settings on record: 1 μM MPZ, 60 min. The source says: All other procedures were the same as described previously.
A short description of data set [1]: Incubation of MPZ in human intestine S9. It counts as in vitro ADME. As to conditions: human intestine S9 1 mg/mL, 2.5 μM MPZ, 60 min. As to the method: (§3) Initial experiment was conducted with S9 fractions from liver and intestine to assess the role of liver and intestinal enzymes in the metabolism of MPZ. The reaction mixture contained 2.5 μM MPZ, pooled human liver or intestine S9 fraction (1 mg/mL S9 protein), 100 mM KPi buffer (pH 7.4). The reaction mixture was pre-incubated for 3-5 min at 37° C. in a humidified incubator filled with 5% CO2 followed by the addition of NADPH (1 mM) to initiate the reaction. The reaction was incubated for 0 and 60 min. The total percentage of organic solvent in incubation mixture was <0.1%. The reactions were terminated by the addition of sample mixture of acetonitrile and ethanol (90:10, v/v). The positive control substrate, 7-EC, was incubated in triplicate in an identical manner as MPZ for S9 fractions.

A short description of the next data set: Dog PK study. It counts as in vivo, beagle dogs. On the procedure:
The pharmacokinetics of metopimazine (parent) and metopimazine acid (metabolite) were evaluated in three male, beagle dogs following a single oral dose of 10 mg/kg metopimazine (free base). The dogs were obtained from Marshall BioResources (North Rose, NY). Animals were weighed prior to each dose administration for the purpose of dose calculation. Metopimazine was administered in size 13 gelatin capsules. Whole venous blood samples of approximately 1.0 mL were collected from a peripheral vein of all animals for determination of metopimazine and metopimazine acid. Samples were collected at the following timepoints: 0.25, 0.5, 1, 2, 4, 8, 12, and 24 hours after test article administration. All animals were sampled at each timepoint. Samples were collected in tubes containing K2EDTA and placed on ice until processed for plasma by centrifugation under refrigeration for at least ten minutes at 3000 rpm. After centrifugation, supernatant was removed and stored frozen in a −70° C. freezer until analyzed by LC-MS/MS.
as §1, §2

The conditions of data set [2]: for Peak Area at Time 0 / Peak Area at Time 90 min: metopimazine incubation in human liver microsomes, full scan LC-MS. On the procedure:
For protein concentration optimization, MPZ at 1 μM was incubated with varying concentration of HLM proteins (0.1, 0.25, 0.5, and 1.0 mg/mL microsomal protein), 100 mM KPi buffer (pH 7.4). After pre-incubation for 3-5 minutes at 37° C., the reaction was initiated by the addition of NADPH (1 mM) for 60 minutes in triplicates.
For incubation time optimization, MPZ at 1 μM was incubated with pooled HLM (0.5 mg/mL microsomal protein) and 100 mM KPi buffer (pH 7.4). After pre-incubation for) for 3-5 minutes at 37° C., the reaction was initiated by the addition NADPH (1 mM) incubated for 0, 10, 20, 40, 60, and 90 minutes to determine the optimal incubation time (linear range). All metabolic reactions in this study were terminated by the addition of chilled organic solvent (acetonitrile:ethanol 90:10, v/v) containing internal standards, unless otherwise indicated.
LC separation conditions were developed for MPZ and its metabolites (MPZA and MPZS), 7 hydroxycoumarin, each metabolite of CYP probe substrate, benzydamine N oxide, and phthalazine. The LC MS/MS system consisted of a Shimadzu Nexera X2 LC-30 UPLC system (Shimadzu Corporation, Kyoto, Japan), and an API 4000 triple quadrupole mass spectrometer (SCIEX, Framingham, MA) was used for analysis. All analytes were analyzed using electrospray ionization (ESI) in positive ion mode except for 7-EC, which used negative ion mode. The LC-MS/MS system was controlled by Analyst software (version 1.6.1, SCIEX, Framingham, MA).
For each analytical method, a calibration curve was generated for the quantification of MPZ and its two metabolites (MPZA and MPZS). […] PAR was also used for all positive control compounds.
% parent remaining=(mean concentration or PAR at each sampling time point/mean concentration or PAR of time zero)×100

The subject of data set [3] is rhFMO1, rhFMO3, and rhFMO5. As to the kind of experiment: Incubation with recombinant FMO. The format is in vitro ADME, human. The settings on record: 1 μM MPZ, pH 8.4. On the procedure: Protein concentrations for all rFMO isoforms were 0.05 mg/mL. A positive control (benzydamine, 100 μM) was incubated for 20 minutes. […] All other procedures were the same as described previously. The negative control reactions were incubated absence of NADPH.

Data set [4] is described as follows: Incubation of MPZ in human liver S9. It counts as in vitro ADME. On the procedure:
as §3

Where [5] appears, read: female, Sprague Dawley, rat, in vivo, po, 45 mg/kg.
Where [6] appears, read: male, Sprague Dawley, rat, in vivo, po, 45 mg/kg.
Where [7] appears, read: male, beagle, dog, in vivo, po, 10 mg/kg.

As to `CS(=O)(=O)c1ccc2c(c1)N(CCCN1CCC(C(N)=O)CC1)c1ccccc1S2` [MPZ, metopimazine], in “Rat PK study” (setting [5]), the AUCinf came to 13800 ng·h/mL, the Cmax was 1730 ng/mL and the Tmax was 4 h. Also, in “Rat PK study” (setting [6]), the AUCinf amounted to 8160 ng·h/mL and the Cmax is 1080 ng/mL. In addition, the “contribution of other CYP enzymes to MPZ metabolism” value with other CYP enzymes is listed as “None of the other CYP enzymes appeared to have significant contribution”. The “metabolism of MPZ” value in data set [1] is reported as “virtually no metabolism”. For the same compound, in “Dog PK study” (setting [7]), the AUC(0-inf) came out at 3190 ng·h/mL and the time of peak concentration (Tmax) came to 50 min. Besides, the MPZ remaining in data set [2] (human, microsomes, 1 h, 1 μM, pH 7.4) is 37.2%. Besides, in data set [2], the “Peak Area at Time 0” value is 2373 and the “Peak Area at Time 90 min” value was 715. Also, the “metabolism of MPZ by recombinant FMO enzymes” value in data set [3] is reported as “did not metabolize MPZ”. Besides, the MPZ disappeared result in data set [4] (human liver S9 1 mg/mL, 2.5 μM MPZ, NADPH, 60-minute incubation) is “approximately 30%”.

Consider `CS(=O)(=O)c1ccc2c(c1)N(CCCN1CCC(C(=O)O)CC1)c1ccccc1S2` [MPZA, metopimazine acid], for which, in the data set “Rat PK study” (setting [5]), the AUC(0-inf) came to 944 ng·h/mL, the concentration peaked (Cmax) at 106 ng/mL and the Tmax is reported as 4 h. In the data set “Rat PK study” (setting [6]), this compound yielded an AUCinf of 755 ng·h/mL and a Cmax of 89 ng/mL. For the same compound, the “MPZA metabolite to parent ratio compared with humans” value in “Rat PK study” (rats) is “particularly lower in rats”. For the same compound, in the data set “Dog PK study” (dogs), the “MPZA metabolite to parent ratio compared with humans” value is listed as “far lower in dogs”. Also, the AUC(0-inf) in the data set “Dog PK study” (setting [7]) was 1030 ng·h/mL. Besides, in data set [2], the “Peak Area at Time 0” value came to 0 and the “Peak Area at Time 90 min” value is reported as 208. For the same compound, in data set [4] (human liver S9, 60-minute incubation), the metabolites formed result is recorded as “formed”.

Broadly, the Cmax is the peak of the concentration-time curve. One may read the Tmax as the time at which the peak concentration occurs. In general, AUC(0-inf) refers to total exposure, with the tail of the curve extrapolated.

The values above are taken from patent US20240156832A1, “METHODS OF METABOLIZING METOPIMAZINE AND ITS SALTS” (Neurogastrx, Inc., priority 2020, published 2024).
